PubChem BioAssay AID504759 (National Center for Advancing Translational Sciences (NCATS), 2011)

Tested on: Caco-2 monolayer bidirectional permeability, LC-MS/MS
Assay: Inhibitors of Cruzain: Efflux Ratio Profiling
Details: hits give low values
From the text: Chagas Disease is a neglected tropical disease that affects over 16 million people in Latin America. The cysteine protease cruzain is essential for the survival Trypanosoma cruzi, the parasitic agent responsible for Chagas disease. Potential intervention for T. cruzi includes the inhibition of cruzain. This bioassay will summarize the ongoing development of small molecule cruzain inhbitiors. Currently, a screen of ~200k compounds and through extensive follow-up work a probe was identified. To further characterize the probe, it was tested in in vitro ADME assays. This bioassays provides profiling data on Caco-2 cell permeability of leads compounds developed for the HPGD project. This in vitro model is often predictive of in vivo efflux of the compound by measuring the ratio of transport in and out the plasma membrane of the Caco2-cell line. NIH Chemical Genomics Center [NCGC] NIH Molecular Libraries Probe Production Centers Network [MLPCN] MLSCN Grant: DA024891-01 PI Name: Dr. Brian Shoichet; University of California, San Francisco
1. Buffer Preparation: Prepare 1M HEPES: add 23.83g HEPES to 100ml of 0.85% NaCl Prepare HBSS+ buffer: add 12.8ml of 1M HEPES in 0.85% NaCl to 500ml HBSS buffer. 2. […] The T0, LY and T90, LY plates are read by FlexStation 3 at excitation of 485 nm and emission of 535 nm to determine LY permeability. […]

Cc1ccc(OCCn2c(CCNC(=O)C3CCCCC3)nc3ccccc32)cc1
efflux ratio: 1.1
